“Also recorded” adds a separate entry of the source.
Experiments:
NFkB = experiment: Western blot analysis of skin samples, NFkB; type: in vivo, C57BL/6 mice; conditions: compared to the TOPGRAF group, p<0.05
Procedure: (§1) At the end of the study, skin samples were harvested and analyzed for inflammatory proteins by immunohistochemistry and western blot analyses.
(§2) For western blot analysis, skin samples were minced in lysis cocktail composed of RIPA lysis buffer, protease inhibitor (PI) and phenylmethylsulfonyl fluoride (PMSF). BCA Protein Assay Reagent Kit was used to estimate the protein concentration per the manufacturer's protocol. 50 μg of the extracted protein for each sample was loaded into a gel and subjected to SDS-polyacrylamide electrophoresis (SDS-PAGE). The blots were incubated with primary antibodies for TNFα, NFkB, IL23, IL17, and β-actin and subsequently detected with Horseradish peroxidase-conjugated secondary antibodies using a SUPERSIGNAL WEST PICO Chemiluminescent Substrate (Pierce, Rockford, Ill., USA) and BIORAD CHEMIDOC XRS+ imaging system (Hercules, Calif., USA).

IL17 = experiment: Western blot analysis of skin samples, IL17; type: in vivo, C57BL/6 mice; conditions: compared to the TOPGRAF group, p<0.05
Procedure: as §1, §2

[1] = tested on: IMQ-induced psoriatic-like plaques; conditions: after five treatments, topical
Procedure: (§3) Briefly, IMQ cream was applied topically to the shaven dorsal regions of C57BL/6 mice (4 mg/day/animal) to form psoriatic-like plaques. […] The CPC-urea gels containing the foregoing formulations were applied to the inflamed dorsal regions of the animals for five (5) consecutive days.
The TEWL was estimated using DELFIN VAPOMETER (DELFIN Technologies Ltd, Finland) as a measure of the extent of skin damage and healing with each day of treatment. The device was placed gently on the dorsal region of the mice each day of treatment and the value corresponding to water loss was recorded.

TNFα = experiment: Western blot analysis of skin samples, TNFα; type: in vivo, C57BL/6 mice; conditions: compared to the TOPGRAF group, p<0.05
Procedure: The animals were then treated by applying cetylpyridinum chloride (CPC)-urea gel containing blank formulation as negative control, pemetrexed formulation, siTNFα formulation, pemetrexed-siTNFα combination formulation, or a known tacrolimus cream (TOPGRAF) as a positive control.
as §2, with “S[…]” for “SUPERSIGNAL WEST”

IL23 = experiment: Western blot analysis of skin samples, IL23; type: in vivo, C57BL/6 mice; conditions: compared to the TOPGRAF group, p<0.05
Procedure: as §1, §2

[2] = tested on: IMQ-induced psoriatic-like plaques; conditions: after five treatments
Procedure: as §3
A clinical scoring method for the PASI was used daily to score the severity of the inflammation induced on the dorsal regions of the mice, based on the extent of erythema, scaling, and epidermal thickening. The PASI score was assigned daily after initiating treatment on a scale of 0 to 4, where 0 indicated no inflammation, 1 indicated slight inflammation, 2 indicated moderate inflammation, 3 indicated marked inflammation, and 4 indicated very severe inflammation.

With `Nc1nc2[nH]cc(CCc3ccc(C(=O)N[C@@H](CCC(=O)O)C(=O)O)cc3)c2c(=O)[nH]1` [pemetrexed] the “expression of NFKB (western blot)” value (NFkB) was “significant reduction”, the “expression of IL17 (western blot)” value (IL17) was “significant reduction; also recorded: decreased expressions” and the “TEWL compared to tacrolimus cream (TOPGRAF)” value [1] was “better TEWL”. For the same compound, the “expression of TNFα (western blot)” value (TNFα) was “significant reduction”, the “expression of IL23 (western blot)” value (IL23) was “significant reduction; also recorded: decreased expressions” and the “PASI score compared to tacrolimus cream (TOPGRAF)” value ([2]; topical) was “better PASI score; also recorded: superior”. For the same compound, the “erythema and scaling compared to other groups” value ([2]; topical) was “significant reduction in erythema and scaling”, the PASI score ([2]; topical CPC-urea gel, scale of 0 to 4) was ~0 and the psoriatic plaque ([2]; topical, b57 compared to TOPGRAF) was “reduction in psoriatic plaque”.

— patent US9867827B1, “Methods and formulations for topical treatment of psoriasis” (Florida A&M University, priority 2015, dated 2018)
